Calls of active or inactive are those of the source.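 The calls were made as follows: active = compounds giving half or more protection of infected cells from virus-caused growth loss, again on retest; inactive = the rest.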 Where a SMILES comes first, the peptide text is derived from it. Bridges are numbered along the chain shown (N, C = ends). Roman numbers before positions name the chains, in order.
System: CEM cells HIV-1 protection, formazan growth assay
Assay: NCI AIDS Antiviral Assay
Details: for IC50: measured here: growth of uninfected CEM cells
Procedure, shortened: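 Protection of CEM cells against HIV-1 measured as cell growth via soluble formazan read-out, with five concentrations tested on both infected and uninfected cells; failure to protect may reflect toxicity.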

| Structure (SMILES) | EC50 | IC50 | outcome |
| --- | --- | --- | --- |
| CCC(=O)C(C)C1=Nc2nnc(CCCCCCCc3nnc4n3C(=O)C(C(C)C(=O)CC)=N4)n2C1=O (configuration not stated) | > 1.07 µM | > 1.07 µM |  |
| C[C@@H](c1ccccc1)N1CN(C(=O)OCc2ccccc2)C(C)(C)CC1=O | > 200 µM | 191 µM |  |
| CN(C)C=NCCN1CCOCC1 | > 200 µM | > 200 µM |  |
| CSc1nc2c(c(N(C)C)n1)C=Nn1c(nc3ccccc31)S2 | 9.77 µM | 97.7 µM |  |
| Cc1cc(O)c2c(c1)C(=O)c1cccc(O)c1C2=O | > 28.2 µM | > 28.2 µM |  |
| COc1ccc(NC(=O)CC/C(CC(=O)C(C)(C)C)=N\NC(=O)C(N)=O)cc1 | > 93.3 µM | > 93.3 µM |  |
| CCCOC(=O)C1OC12CCCCC2 (configuration not stated) | > 200 µM | > 200 µM |  |
| CCN1C[C@]2(OC(=O)c3ccccc3NC(C)=O)CCC(OC)C34[C@@H]1[C@@](O)(C[C@@H]32)[C@@]1(O)C[C@H](OC)[C@@H]2C[C@@H]4[C@]1(O)C2OC (some centres not stated) |  |  | inactive |
| CSC1=Nc2ccccc2-c2nc3ccccc3cc2C1 |  |  | inactive |
| CC(=O)OC1C2CCC1C1C2C2(Cl)C(Cl)=C(Cl)C1(Cl)C2(Cl)Cl (configuration not stated) |  |  | inactive |
| O=S(=O)(O)CC(O)CNC(CO)(CO)CO (configuration not stated) | > 200 µM | > 200 µM |  |
| O=c1[nH]nnc2cc(Cl)ccc12 | > 200 µM | > 200 µM |  |
| NC(Cc1ccc(OCc2ccccc2)cn1)C(=O)OCc1ccccc1 (configuration not stated) | > 200 µM | > 200 µM |  |
| CC1=CC[C@@]2(C)CC[C@](O)(C(C)C)C2C(OC(=O)c2ccccc2)C1 (some centres not stated) | > 200 µM | 13.2 µM |  |
| Cc1ccc(C23c4ccccc4CCN2C(=O)C3N)cc1 (configuration not stated) | > 603 µM | 117 µM |  |
| Cc1c2c(n3c(nc4ccccc43)c1C#N)NCC2 | > 200 µM | > 200 µM |  |
| CCC1Sc2cc(OC)cc3c2N(CCN3)C1=O (configuration not stated) | > 200 µM | 57.5 µM |  |

| Structure (SMILES) | EC50 | IC50 | outcome |
| --- | --- | --- | --- |
| CC1=NS(=O)(=O)NC(C)=C1CC1=C(C)NS(=O)(=O)N=C1C | > 269 µM | > 269 µM |  |
| CC1=C(C(=O)Nc2ccc([N+](=O)[O-])cc2)C(c2cccc([N+](=O)[O-])c2)C(C(=O)Nc2ccc([N+](=O)[O-])cc2)=C(C)N1 | > 4.9 µM | > 4.9 µM |  |
| CCCN(CCC)C(=O)c1c(Cl)c2cccnc2n2c(C)cnc12 | > 200 µM | 70.8 µM |  |
| CCOc1ccccc1NC(=O)CCc1nnc2s/c(=C\CCc3ccccc3)c(=O)n12 | > 79.4 µM | > 79.4 µM |  |
| O=[N+]([O-])c1ccc(-c2cn(-c3ccc(Cl)cc3)cn2)cc1 | > 100 µM | > 100 µM |  |
| Cc1nc(SCC(N)=O)c2sc(=S)n(-c3ccccc3)c2n1 | > 200 µM | > 200 µM |  |
| COc1cc(C(C#N)NNC(=O)Cc2ccccc2)cc(OC)c1OC (configuration not stated) | > 191 µM | 93.3 µM |  |
| N#CC1(C#N)NC(c2cccs2)C(C#N)(C#N)NC1c1cccs1 (configuration not stated) | > 200 µM | 26.9 µM |  |
| C/C(=N/NC(=O)c1ccncc1)c1ccc(NC(=O)C(=O)Nn2c(=S)[nH]c3ccccc3c2=O)cc1 | > 51.3 µM | > 51.3 µM |  |
| Cc1ccc(C)c(N2C(=O)C(=O)C(c3nc4ccccc4o3)/C(=N\NC(=O)c3ccccc3O)C2=O)c1 (configuration not stated) |  |  | inactive |
| CCCCCCOC(=O)c1[nH]c(=O)n(CCCCCC)c(=O)c1NC(=O)CNc1ccc2c(=O)c3ccccc3[nH]c2c1 | > 200 µM | 1 µM |  |
| CN(C)c1ccc(C2ON=C(c3ccccc3)N2C23CC4CC(CC(C4)C2)C3)cc1 (configuration not stated) | > 200 µM | 24 µM |  |
| C=CC1(C)CCC2C(C)(C)C(Br)CC[C@]2(C)O1 (some centres not stated) |  |  | inactive |
| COc1ccc(CCc2ncc[nH]2)cc1OC | > 617 µM | > 617 µM |  |
| COC(=O)C1=C(C)N2CCOC2(C)C(C(=O)OC)C1c1ccc[nH]1 (configuration not stated) | > 200 µM | > 200 µM |  |
| O=S(O)c1cc(Cl)cc(Cl)c1O |  |  | inactive |
| NC(CSSCC(N)C(=O)NC(Cc1ccc(O)cc1)C(=O)O)C(=O)NC(Cc1ccc(O)cc1)C(=O)O (stereo not drawn) (I: H-Cys-Tyr-OH / II: H-Cys-Tyr-OH; disulfide I:1-II:1; configuration not given here) | > 200 µM | > 200 µM |  |

Source: PubChem BioAssay AID179 (DTP/NCI, 2004)
